Experimental data published in patent US6465457B1 (priority 1991, dated 2002).

Tests used:
Assay type in all cases: in vivo
[1] = system: Pyricularia oryzae (Rice); conditions: 100 ppm a.i. foliar spray or root drench (approx. 40 ppm in dry soil), one or two days before inoculation
[2] = system: Phytophthora infestans (Tomatoes); conditions: 100 ppm a.i. foliar spray or root drench (approx. 40 ppm in dry soil), one or two days before inoculation
[3] = system: Erysiphe graminis tritici (Wheat); assay: Foliar fungal disease test on plants: Erysiphe graminis tritici (Wheat); conditions: 100 ppm a.i. foliar spray or root drench (approx. 40 ppm in dry soil); plants inoculated 24 hours before treatment
Protocol: (§1) The compounds were tested against a variety of foliar fungal diseases of plants. The technique employed was as follows.
(§2) The plants were grown in John Innes Potting Compost (No 1 or 2) in 4 cm diameter minipots. The test compounds were formulated either by bead milling with aqueous DISPERSOL T or as a solution in acetone or acetone/ethanol which was diluted to the required concentration immediately before use. […] The sprays were applied to maximum retention and the root drenches to a final concentration equivalent to approximately 40 ppm a.i. in dry soil. TWEEN 20 was added to give a final concentration of 0.05% when the sprays were applied to cereals.
(§3) For most of the tests the compounds were applied to the soil (roots) or to the foliage (by spraying) one or two days before the plant was inoculated with the disease. An exception was the test on Erysiphe graminis in which the plants were inoculated 24 hours before treatment. Foliar pathogens were applied by spray as zoosporangial suspensions onto the leaves of test plants. After inoculation, the plants were put into an appropriate environment to allow infection to proceed and then incubated until the disease was ready for assessment. The period between inoculation and assessment varied from four to fourteen days according to the disease and environment.
(§4) The disease level present (i.e. leaf area covered by actively sporulating disease) on each of the treated plants was recorded using the following assessment scale:
(§5) Each assessment was then expressed as a percentage of the level of disease present on the untreated control plants. This calculated value is referred to as a POCO (Percentage of Control) value. An example of a typical calculation is as follows:
(§6) Disease level on untreated control=90
(§7) Disese level on treated plant=30 [formula]
(§8) This calculated POCO value is then rounded to the nearest of the values in the 9-point assessment scale shown above. In this particular example, the POCO value would be rounded to 30. If the calculated POCO falls exactly mid-way between two of the points, it is rounded to the lower of the two values.

[4] = system: Plasmopara viticola (Vines); assay: Foliar fungal disease test on plants: Plasmopara viticola (Vines); conditions: 100 ppm a.i. foliar spray or root drench (approx. 40 ppm in dry soil), one or two days before inoculation
Protocol: as §1, §2, §3, §4, §5, §6, §7, §8

[5] = system: Thanatephorus cucumeries (Rice); assay: Foliar fungal disease test on plants: Thanatephorus cucumeries (Rice); conditions: 100 ppm a.i. foliar spray or root drench (approx. 40 ppm in dry soil), one or two days before inoculation
Protocol: as §1, §2, §3, §4, §5, §6, §7, §8

[6] = system: Venturia inaequalis (Apples); assay: Foliar fungal disease test on plants: Venturia inaequalis (Apples); conditions: 100 ppm a.i. foliar spray or root drench (approx. 40 ppm in dry soil), one or two days before inoculation
Protocol: as §1, §2, §3, §4, §5, §6, §7, §8

Septoria nodorum (Wheat) = assay: Foliar fungal disease test on plants: Septoria nodorum (Wheat); conditions: 100 ppm a.i. foliar spray or root drench (approx. 40 ppm in dry soil), one or two days before inoculation
Protocol: as §1, §2, §3, §4, §5, §6, §7, §8

Row | Compound | POCO (Percentage of Control) disease level, Pyricularia oryzae (Rice) [1] | POCO (Percentage of Control) disease level, Phytophthora infestans (Tomatoes) [2] | POCO (Percentage of Control) disease level, Erysiphe graminis tritici (Wheat) [3] | POCO (Percentage of Control) disease level, Plasmopara viticola (Vines) [4] | POCO (Percentage of Control) disease level, Thanatephorus cucumeries (Rice) [5] | POCO (Percentage of Control) disease level, Venturia inaequalis (Apples) [6] | POCO (Percentage of Control) disease level, Septoria nodorum (Wheat) (Septoria nodorum (Wheat))
1 | CCN(C(=O)OCc1ccccc1C(=COC)C(=O)OC)c1ccccc1 [5 (3)] | 0 (0 = 0% disease present) | 5 (5 = 3.1-5% disease present) | 0 (0 = 0% disease present) | 0 (0 = 0% disease present) | 5 (5 = 3.1-5% disease present) | 0 (0 = 0% disease present) | 0 (0 = 0% disease present)
2 | COC=C(C(=O)OC)c1ccccc1COC(=O)Nc1ccccc1C(=O)OC [33 (1)] | 90 (90 and 94 = 60.1-100% disease present) | 90 (90 and 94 = 60.1-100% disease present) | 60 (60 = 30.1-60% disease present) | 90 (90 and 94 = 60.1-100% disease present) | 90 (90 and 94 = 60.1-100% disease present) | 0 (0 = 0% disease present) | 90 (90 and 94 = 60.1-100% disease present)
3 | COC=C(C(=O)OC)c1ccccc1COC(=O)Nc1ccc(F)cc1F [24 (1)] | 90 (90 and 94 = 60.1-100% disease present) | 20 (20 and 24 = 10.1-20% disease present) | 0 (0 = 0% disease present) | 0 (0 = 0% disease present) | 60 (60 = 30.1-60% disease present) | 0 (0 = 0% disease present) | 60 (60 = 30.1-60% disease present)
4 | COC=C(C(=O)OC)c1ccccc1COC(=O)N(C)c1cccc([N+](=O)[O-])c1 [6 (2)] | 0 (0 = 0% disease present) | 10 (10 = 5.1-10% disease present) | 0 (0 = 0% disease present) | 0 (0 = 0% disease present) | 30 (30 = 20.1-30% disease present) | 0 (0 = 0% disease present) | 0 (0 = 0% disease present)
5 | COC=C(C(=O)OC)c1ccccc1COC(=O)N(C)c1ccccc1F [3 (2)] | 0 (0 = 0% disease present) | 0 (0 = 0% disease present) | 0 (0 = 0% disease present) | 0 (0 = 0% disease present) | 0 (0 = 0% disease present) | 0 (0 = 0% disease present) | 0 (0 = 0% disease present)
6 | COC=C(C(=O)OC)c1ccccc1COC(=O)Nc1ccc(OC)nc1 [32 (1)] | 90 (90 and 94 = 60.1-100% disease present) | 30 (30 = 20.1-30% disease present) | 20 (20 and 24 = 10.1-20% disease present) | 0 (0 = 0% disease present) | 90 (90 and 94 = 60.1-100% disease present) | 60 (60 = 30.1-60% disease present) | 30 (30 = 20.1-30% disease present)
7 | COC=C(C(=O)OC)c1ccccc1COC(=O)N(C)c1ccc(F)cc1F [24 (2)] | 0 (0 = 0% disease present) | 0 (0 = 0% disease present) | 0 (0 = 0% disease present) | 0 (0 = 0% disease present) | 0 (0 = 0% disease present) | 0 (0 = 0% disease present) | 0 (0 = 0% disease present)
8 | COC=C(C(=O)OC)c1ccccc1OC(=O)Nc1ccccc1 [5 (17)] | 5 (5 = 3.1-5% disease present) | 60 (60 = 30.1-60% disease present) | 60 (60 = 30.1-60% disease present) | 0 (0 = 0% disease present) | 90 (90 and 94 = 60.1-100% disease present) | 1 (1 = 0.1-1% disease present) | 60 (60 = 30.1-60% disease present)
9 | CCN(C(=O)OCc1ccccc1C(=COC)C(=O)OC)c1ccccc1F [3 (3)] | 0 (0 = 0% disease present) | 0 (0 = 0% disease present) | 0 (0 = 0% disease present) | 0 (0 = 0% disease present) | 0 (0 = 0% disease present) | 0 (0 = 0% disease present) | 0 (0 = 0% disease present)
10 | CCN(C(=O)OCc1ccccc1C(=COC)C(=O)OC)c1cccc([N+](=O)[O-])c1 [6 (3)] | 0 (0 = 0% disease present) | 10 (10 = 5.1-10% disease present) | 0 (0 = 0% disease present) | 0 (0 = 0% disease present) | 90 (90 and 94 = 60.1-100% disease present) | 0 (0 = 0% disease present) | 0 (0 = 0% disease present)
